Measurements from patent US12144840B2, “Method for treating or preventing benign prostatic hyperplasia” (priority 2017, dated 2024).
“And” between values parts separate entries of the source, which are not always exact repeats. Equal values may be shown once. Read-outs that look alike come from different tables or passages of the source.

Key:
[1] = tested on: RAW 264.7 cells; test: Nitric oxide (NO) change in LPS-activated macrophages (Griess reagent); format: cell-based; settings: 200 ng LPS, various concentrations, 18 hours, vs LPS alone; dose-dependent (FIG. 1)
Procedure: (§1) RAW 264.7 cells, which were macrophages used in the present tests, were available from American Type Culture Collection (ATCC). These cells were cultured in CO2 incubator (Formascientific, Inc.) using DMEM containing 10% fetal bovine serum (FBS). The differentiation of cells was observed through microscopic observation, and then the cells were used in the tests.
To induce the activation of macrophages, RAW 264.7 cells were treated with 200 ng/ ? lipopolysaccharide (LPS) while simultaneously treated with various concentrations (μg/ ? ) of a 100% methanol extract of Aucklandiae Radix (expressed by MeOH 100%), a 30% ethanol extract of Aucklandiae Radix (expressed by EtOH 30%), and a 70% ethanol extract of Aucklandiae Radix (expressed by EtOH 70%), and costunolide, and then the cells were cultured in a 37° C., 5% CO2 incubator for 18 hours. After 18 hours, 100 ? of the supernatant was transferred to a new plate for each group, and 100 ? of a solution, in which Griess reagent A (2% sulfanilamide in 5% phosphoric acid) and Greiss reagent B (0.2% naphthylethylenediamine dihydrochloride) were mixed at a rate of 1:1, was added thereto. Thereafter, the absorbance was measured at 540 nm.

[2] = tested on: RAW 264.7 cells; test: Inflammatory cytokine (IL-1β, IL-6, TNF-α) levels by ELISA in LPS-activated macrophages; format: cell-based; settings: 200 ng LPS, various concentrations, 18 hours, vs cells treated with only LPS (FIG. 2)
Procedure: as §1
RAW 264.7 cells were treated with 200 ng/ ? LPS while simultaneously treated with various concentrations (μg/ ? ) of Aucklandiae Radix extracts (EtOH 30% and 70%) and costunolide, and then the cells were cultured in a 37° C., 5% CO2 incubator for 18 hours. After 18 hours, ELISA analysis kits (eBioScience 88-7013, 88-7064 USA, BD 555268 USA) were used to check the levels of the inflammatory cytokines IL-1β, IL-6, and TNF-α in the supernatant of each group.

[3] = tested on: testosterone-induced benign prostatic hyperplasia; format: in vivo, male Wistar rats; settings: BPH rats; for Ratio (b/a* 100): prostate weight/body weight
Procedure: (§2) After 6-week-old male Wistar rats (Samtako, Korea) were obtained and acclimated for one week, six animals constituted each test group when each animal weighed 340-350 g.
(§3) As for the test configuration, the animals were divided into groups without testicle removal and groups undergoing […] recovery after testicle removal, and each group was subcutaneously injected with 5 mg/kg testosterone to induce benign prostatic hyperplasia for weeks (BPH induced group). Test groups were constructed by oral administration of Aucklandiae Radix extracts and costunolide at different concentrations (mg/kg) once a day, seven times a week, for 8 weeks.
After the completion of the test, the rats of all the test groups were euthanized, and then prostate tissue and main organs were extracted, and weights and volumes thereof were measured using an electronic scale for animal weights and a caliper (mm^3) (Table 2).

[4] = format: in vivo, male Wistar rats
Procedure: as §2
as §3, with “weeks. Positive control groups were used by oral administration of finasteride, which has been used as a medicine for benign prostatic hyperplasia.” for “weeks.”
For analysis of biochemical markers in serum, blood was obtained through the abdominal vein from rats of all the groups at necropsy. The blood was coagulated for about 30 minutes, and then centrifuged for 5 minutes at 10,000 rpm to separate serum. After serum separation, a biochemistry analyzer (AU480, Beckman Coulter, USA) was used to check liver function (AST, ALP), lipoprotein (total cholesterol (T-CHO)), HDL cholesterol (HDL-C), LDL cholesterol (LDL-C)), and kidney function ([…]) levels (Table 3).

[5] = tested on: prostate tissue; test: Prostate pathology biopsy (H&E) in BPH model rats; format: in vivo, male Wistar rats; settings: oral once a day, 8 weeks
Procedure: as §2
as §3, with “weeks. Positive control groups were used by oral administration of finasteride, which has been used as a medicine for benign prostatic hyperplasia.” for “weeks.”
After the completion of the test, the prostate tissue extracted from each group was fixed with 10% neutral formalin and stored. The tissue of each group was processed into paraffin blocks, and slides for microscopic inspection of tissue were manufactured and stained with hematoxylin & eosin (H&E). The microscopic inspection of tissue was conducted through a microscope (Olympus, Tokyo, Japan) at a magnification of X200.

[6] = oral 0.075 mg/kg once a day, 8 weeks
[7] = positive control group, oral, dose not given

Which “amount of NO” value [1] does the source give for `C=C1C(=O)O[C@@H]2/C=C(\C)CC/C=C(\C)CC[C@@H]12` [costunolide] here?
Its value is “significantly decreased”.

What about the “secretion levels of the inflammatory cytokines (IL-1β, IL-6, TNF-α)” value [2] of the same compound?
Its value is “decreases”.

And the “prostate weights and volumes” value ([3]; costunolide administration groups, printed as 0.075 μg/, compared with finasteride administration groups (FIG. 3))?
Its value is “significant reduction effect”.

And the “Body Weight (a)” value [3, 6]?
Its value is 433 g.

And the Liver weight [3, 6]?
The Liver weight was 10.72 g.

What about the “Prostate Weight (b)” value [3, 6] of the same compound?
The value was 1.40 g.

What about the Prostate volume [3, 6] of the same compound?
The Prostate volume was 4,126 mm^3.

And the Speen weight [3, 6]?
Its Speen weight is 0.62 g.

And the “Ratio (b/a* 100)” value [3, 6]?
The value was 0.32.

What about the “serum liver function, lipoprotein and kidney function levels (hepatoxicity and kidney toxicity)” value ([4]; BPH rats, oral once a day, 8 weeks, all administered groups) of the same compound?
The value was “no significant changes”.

What about the ALP ([4]; rat, in vivo, po, 0.075 mg/kg) of the same compound?
The ALP was 61.17 U/L.

And the AST ([4]; rat, in vivo, po, 0.075 mg/kg)?
Its AST is 78.33 U/L.

And the CRE ([4]; rat, in vivo, po, 0.075 mg/kg)?
Its CRE is 0.27 mg/dL.

And the HDL ([4]; rat, in vivo, po, 0.075 mg/kg)?
Its HDL is 51.50 mg/dL.

What about the LDL ([4]; rat, in vivo, po, 0.075 mg/kg) of the same compound?
The LDL was 13.17 mg/dL.

What about the T-CHO ([4]; rat, in vivo, po, 0.075 mg/kg) of the same compound?
Its T-CHO is 79.67 mg/dL.

What about the “endothelial thicknesses of prostate tissue (H&E, X200)” value ([5]; compared with the benign prostatic hyperplasia induced group (FIGS. 4 and 5)) of the same compound?
The value was “significantly reduced”.

And the “alveolar glands of prostate tissue (H&E, X200)” value ([5]; similar to the normal control group (FIGS. 4 and 5))?
Its value is “maintained in a round shape without atrophy”.

With `CC(C)(C)NC(=O)[C@H]1CC[C@H]2[C@@H]3CC[C@H]4NC(=O)C=C[C@]4(C)[C@H]3CC[C@]12C` [Fina, finasteride] as the compound, how does the “Body Weight (a)” value [3, 7] read?
The value was 379 g and 415 g.

What about the “Prostate Weight (b)” value [3, 7] of the same compound?
Its value is 1.23 g and 1.42 g.

And the Prostate volume [3, 7]?
Its Prostate volume is 2,322 mm^3 and 4,255 mm^3.

What about the Speen weight [3, 7] of the same compound?
Its Speen weight is 0.60 g and 0.70 g.

What about the “Ratio (b/a* 100)” value [3, 7] of the same compound?
The value was 0.29 and 0.34.
